The CheMixHub viscosity set

Assay: xn = mol fraction of the nth substance listed

C=CC#N + CCCCOC(C)=O
viscosity [mPa·s]
Settings	298.15 K	303.15 K	308.15 K
101.3 kPa, x1 = 0.0988	–	0.6248	–
101.3 kPa, x1 = 0.2033	–	0.5998	–
101.3 kPa, x1 = 0.3022	–	0.5737	–
101.3 kPa, x1 = 0.401	–	0.5437	–
101.3 kPa, x1 = 0.4962	–	0.5133	–
101.3 kPa, x1 = 0.5941	–	0.4775	–
101.3 kPa, x1 = 0.6991	–	0.4364	–
101.3 kPa, x1 = 0.7966	–	0.3951	–
101.3 kPa, x1 = 0.8992	–	0.3527	–
101.33 kPa, x1 = 0.099	0.651	0.607	0.571
101.33 kPa, x1 = 0.1971	0.626	0.582	0.547
101.33 kPa, x1 = 0.2999	0.596	0.553	0.522
101.33 kPa, x1 = 0.404	0.561	0.524	0.494
101.33 kPa, x1 = 0.5006	0.526	0.49	0.464
101.33 kPa, x1 = 0.5992	0.488	0.458	0.433
101.33 kPa, x1 = 0.7004	0.449	0.421	0.398
101.33 kPa, x1 = 0.8014	0.412	0.384	0.365
101.33 kPa, x1 = 0.9031	0.374	0.349	0.33

CCCCN(CCCC)CCCC + CCCCOCCO
viscosity [mPa·s], 100 kPa
Settings	298.15 K	303.15 K	308.15 K
x2 = 0.05	1.31	1.19	1.12
x2 = 0.1004	1.37	1.23	1.15
x2 = 0.1502	1.43	1.28	1.19
x2 = 0.2006	1.49	1.33	1.23
x2 = 0.2999	1.62	1.43	1.32
x2 = 0.3999	1.76	1.54	1.43
x2 = 0.5046	1.93	1.69	1.55
x2 = 0.6	2.1	1.83	1.67
x2 = 0.7	2.29	1.99	1.8
x2 = 0.8	2.5	2.16	1.96
x2 = 0.8997	2.7	2.36	2.14
x2 = 0.9498	2.79	2.43	2.21

CN(C)c1ccccc1 + CCCCOCCO
viscosity [mPa·s], 101.3 kPa
Settings	x2 = 0.0991	x2 = 0.2007	x2 = 0.3163	x2 = 0.3988	x2 = 0.4955	x2 = 0.5977	x2 = 0.6989	x2 = 0.7971	x2 = 0.8968
298 K	1.298	1.369	1.479	1.586	1.715	1.88	2.076	2.281	2.555
303 K	1.184	1.245	1.338	1.42	1.524	1.666	1.825	2.002	2.23
308 K	1.096	1.14	1.221	1.291	1.384	1.501	1.643	1.79	1.991
313 K	1.022	1.063	1.129	1.186	1.266	1.369	1.486	1.617	1.781
318 K	0.947	0.984	1.041	1.089	1.156	1.217	1.346	1.459	1.601

O=C1c2ccccc2C(=O)C1(O)O + CCCC[N+](CCCC)(CCCC)CCCC.O=S(=O)([O-])O
Settings	viscosity [mPa·s]
323.15 K, 100 kPa, x2 = 0.571	48500

C=CC#N + CCCO
viscosity [mPa·s], 101.33 kPa
Settings	x1 = 0.1031	x1 = 0.203	x1 = 0.307	x1 = 0.4079	x1 = 0.5104	x1 = 0.6066	x1 = 0.7057	x1 = 0.8002	x1 = 0.9032
298.15 K	1.409	1.074	0.85	0.688	0.578	0.497	0.435	0.393	0.36
303.15 K	1.264	0.975	0.778	0.635	0.538	0.465	0.412	0.373	0.343
308.15 K	1.139	0.888	0.71	0.59	0.503	0.438	0.389	0.355	0.328

CC(=O)CC(C)=O + CCCO
303.15 K, 101 kPa
Settings	viscosity [mPa·s]
x1 = 0.05	1.453
x1 = 0.1	1.271
x1 = 0.2999	0.922
x1 = 0.4999	0.769
x1 = 0.6999	0.697
x1 = 0.8994	0.673
x1 = 0.9487	0.667

CN(C)c1ccccc1 + CCCO
viscosity [mPa·s]
Settings	303.15 K	308.15 K	313.15 K	318.15 K	323.15 K
101 kPa, x1 = 0.0503	1.685	–	–	–	–
101 kPa, x1 = 0.1049	1.625	–	–	–	–
101 kPa, x1 = 0.1825	1.552	–	–	–	–
101 kPa, x1 = 0.2575	1.482	–	–	–	–
101 kPa, x1 = 0.3423	1.413	–	–	–	–
101 kPa, x1 = 0.3929	1.377	–	–	–	–
101 kPa, x1 = 0.4121	1.365	–	–	–	–
101 kPa, x1 = 0.4703	1.328	–	–	–	–
101 kPa, x1 = 0.5523	1.29	–	–	–	–
101 kPa, x1 = 0.6229	1.265	–	–	–	–
101 kPa, x1 = 0.7221	1.242	–	–	–	–
101 kPa, x1 = 0.8096	1.225	–	–	–	–
101 kPa, x1 = 0.9023	1.198	–	–	–	–
101.33 kPa, x1 = 0.1011	1.587	1.335	1.205	1.091	0.9913
101.33 kPa, x1 = 0.1989	1.345	1.214	1.1	1.005	0.9196
101.33 kPa, x1 = 0.2994	1.249	1.134	1.033	0.9491	0.8709
101.33 kPa, x1 = 0.4015	1.194	1.09	0.9974	0.9328	0.8513
101.33 kPa, x1 = 0.4992	1.153	1.057	0.9763	0.9019	0.8384
101.33 kPa, x1 = 0.598	1.126	1.034	0.9608	0.8881	0.8254
101.33 kPa, x1 = 0.7024	1.117	1.044	0.965	0.8981	0.8357
101.33 kPa, x1 = 0.798	1.126	1.037	0.9602	0.8961	0.8364
101.33 kPa, x1 = 0.9026	1.154	1.071	0.9947	0.9284	0.8751

C=CC#N + CCCOC(C)=O
viscosity [mPa·s], 101.33 kPa
Settings	x1 = 0.1052	x1 = 0.1835	x1 = 0.2994	x1 = 0.4057	x1 = 0.4982	x1 = 0.6097	x1 = 0.7023	x1 = 0.8019	x1 = 0.901
298.15 K	0.54	0.524	0.5	0.479	0.459	0.435	0.411	0.387	0.362
303.15 K	0.504	0.489	0.47	0.452	0.434	0.411	0.391	0.368	0.345
308.15 K	0.472	0.46	0.442	0.428	0.411	0.392	0.372	0.352	0.331
